# Laboratory results published in PMC10571761, “Transgenic Mice Expressing Functional TCRs Specific to Cardiac Myhc-α 334–352 on Both CD4 and CD8 T Cells Are Resistant to the Development of Myocarditis on C57BL/6 Genetic Background” (Cells, 2023).
# Peptide text beside a SMILES is read from it.
# T1: IA^b (Mus musculus, UniProt P14434+P14483)
# T1 construct: IA^b constructs were designed to contain the extracellular domains of IA^b-α and IA^b-β; CLIP 88–102 ([…]) with thrombin site (cleaved yes); made in house; host or cells: Sf9 insect cells (baculovirus)
# T1 sequence (P14434 24-218 limits assumed): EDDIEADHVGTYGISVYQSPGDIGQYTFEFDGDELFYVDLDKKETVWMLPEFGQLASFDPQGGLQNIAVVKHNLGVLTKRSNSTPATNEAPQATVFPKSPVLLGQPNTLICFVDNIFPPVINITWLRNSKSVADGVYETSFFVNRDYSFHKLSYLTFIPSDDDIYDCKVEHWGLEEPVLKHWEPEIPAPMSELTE
# T1 sequence (P14483 28-226 limits assumed): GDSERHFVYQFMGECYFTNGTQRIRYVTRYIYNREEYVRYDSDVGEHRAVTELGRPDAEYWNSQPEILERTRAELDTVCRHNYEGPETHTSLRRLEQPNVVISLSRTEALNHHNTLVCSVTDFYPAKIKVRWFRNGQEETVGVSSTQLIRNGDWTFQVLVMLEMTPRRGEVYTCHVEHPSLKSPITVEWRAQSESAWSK
# T2: cardiac myosin heavy chain (Myhc)-α peptide on I-Ak (mouse)
# T2 peptide: DSAFDVLSFTAEEKAGVYK
# B1: Myhc-α 334–352-specific TCR of T cell hybridoma clone C33 (transgenic TCR of the Myhc-α 334–352 TCR Tg mice) (TCR)
# alpha TRAV14-1*02 TRAJ42*01 CDR3: CAASAEGSNAKLTF
# beta TRBV2*01 TRBJ2-5*01 CDR3: CASSQSLGQDTQYF
# Columns and labels:
# IA^k = molecular target: T3, IA^k (Mus musculus, UniProt P01910+P06343); experiment: IA^k binding assay (DELFIA competition); conditions: soluble thrombin-cleaved IA^k; reference peptide biotinylated HEL 46–61; overnight RT; europium-labeled streptavidin, fluorescence 340/615 nm; mean ± SEM from three to five experiments, three replicates each; read-out: IC50 value, binding to IA^k molecules
# T3 construct: After expressing soluble IA^k and IA^b monomers in a baculovirus system; CLIP peptide, released by thrombin cleavage (cleaved yes); made in house; host or cells: baculovirus system (insect cells; Sf9 is stated only for IA^b)
# IA^b = molecular target: T1, IA^b; experiment: IA^b binding assay (DELFIA competition); conditions: soluble thrombin-cleaved IA^b (0.35 µg); competitor 0.00001 µM to 100 µM; biotinylated OVA 323–339 (50 µM) reference; pH 7.0 phosphate; overnight RT; fluorescence 340/615 nm; three to five experiments, three replicates each; read-out: IC50 value, binding to IA^b molecules
# From the text: To determine the binding affinity of Myhc-α 334–352 to IA^b, soluble IA^b molecules were expressed similarly to the IA^k molecule. Briefly, IA^b constructs were designed to contain the extracellular domains of IA^b-α and IA^b-β [43]. The IA^b-β construct consisted of the class II-associated invariant chain peptide (CLIP) 88–102 (VSQMRMATPLLMRPM) and thrombin site to release the CLIP [44]. After expressing the IA^b molecules in baculovirus using Sf9 cells and purifying on an anti-IA^b affinity column (clone, M5/114) (BioXCell, West Lebanon, NH, USA), they were cleaved with thrombin to obtain empty IA^b molecules. […] In addition, anti-IA^b (10 µg/mL) was coated onto white fluorescence 96-well plates (Nunc, Rochester, NY, USA) in 0.2 M sodium phosphate buffer, pH 6.8, overnight, followed by washing and blocking with 2% casein for 2 h at 37 °C. […] Europium-labeled streptavidin was added (1 µg/mL) in dissociation-enhanced lanthanide fluorescence immunoassay (DELFIA®) buffer and then the DELFIA®-enhancement solution (Perkin Elmer, Waltham, MA, USA). Fluorescence intensities were measured at wavelengths of 340/615 nm using a VICTOR® Multilabel Plate Reader (Perkin Elmer), and IC50 values were then determined. […]
# A/J mice = conditions: immunization with CFA; cited from earlier work
# From the text: Histologically, the disease process can be classified into lymphocytic, neutrophilic, eosinophilic, granulomatous, and giant cell myocarditis. Of these, lymphocytic myocarditis generally occurs with viral infections. Although most myocarditis-affected individuals may spontaneously recover, up to 20% of them can develop DCM, in which autoimmunity is suspected as an underlying mechanism. […] The immunogenic epitopes can be promiscuous in that they can bind multiple MHC alleles.
# CD4 and CD8 T cells = conditions: cited from earlier work
# From the text: In that direction, we sought to create TCR Tg mice specific to Myhc-α 334–352 and made a few observations. […] However, expression of Myhc-α 334–352-specific TCRs in both CD4 and CD8 T cells was not expected. To our knowledge, our Tg model is only the second such example to have been reported, with the earlier example being 1C6 Tg mice specific to myelin olig ...
# BALB/c mice = conditions: immunization with CFA; cited from earlier work
# From the text: (§1) Histologically, the disease process can be classified into lymphocytic, neutrophilic, eosinophilic, granulomatous, and giant cell myocarditis. Of these, lymphocytic myocarditis generally occurs with viral infections. Although most myocarditis-affected individuals may spontaneously recover, up to 20% of them can develop DCM, in which autoimmunity is suspected as an underlying mechanism. Although autoantibodies for various antigens—such as cardiac myosin (Myhc), adenine nucleotide translocator (ANT), branched-chain α-ketoacid dehydrogenase kinase (BCKDk), sarcoplasmic/end ...
# rats = conditions: immunization with CFA; cited from earlier work
# From the text: as §1
# lymphocytes from Tg mice = experiment: Cytokine analysis, lymphocytes of immunized Tg mice; type: cell-based, TCR transgenic mice on C57BL/6 background; conditions: control peptide, two days
# Description: Myhc-α 334–352 immunizations involved peptide/CFA emulsions containing Mycobacterium tuberculosis H37RA extract (Difco Laboratories, Detroit, MI, USA) with a final concentration of 5 mg/mL. The emulsions were administered subcutaneously (100 µg/mouse) in the inguinal and sternum regions on days 0 and 7. In some experiments, animals received emulsions in the left and right shoulders and on the right and left sides of the hip regions in split doses. Additionally, pertussis toxin (List Biological Laboratories, Campbell, CA, USA) was administered to animals intraperitoneally (100 ng/mouse) on days 0 and 2 after the first immunization.
# Lymphocytes were obtained from wild-type (Wt) or Tg mice immunized with or without Myhc-α 334–352. […] Cytokines were analyzed using the LEGENDplex Murine Th cytokine Panel (12-plex or 13-plex; BioLegend). […] Beads were acquired by flow cytometry (FACSCalibur™), and concentrations of cytokines were determined using the LEGENDplex™ data analysis software suite (BioLegend). […]
# Figure 6 Tg T cells produce mainly Th1 and Th17 cytokines. […] Cells were stimulated with or without Myhc-α 334–352 or OVA 323–339 (control) at the indicated concentrations for two days, and the culture supernatants were evaluated by cytokine bead array analysis except for IL-4, which was measured by ELISA. […]
# [1] = molecular target: T2, cardiac myosin heavy chain (Myhc)-α …; experiment: multimer staining
molecule,measurement,setting,value
CC(C)C[C@H](NC(=O)[C@@H](NC(=O)[C@H](CC(=O)O)NC(=O)[C@H](Cc1ccccc1)NC(=O)[C@H](C)NC(=O)[C@H](CO)NC(=O)[C@@H](N)CC(=O)O)C(C)C)C(=O)N[C@@H](CO)C(=O)N[C@@H](Cc1ccccc1)C(=O)N[C@H](C(=O)N[C@@H](C)C(=O)N[C@@H](CCC(=O)O)C(=O)N[C@@H](CCC(=O)O)C(=O)N[C@@H](CCCCN)C(=O)N[C@@H](C)C(=O)NCC(=O)N[C@H](C(=O)N[C@@H](Cc1ccc(O)cc1)C(=O)N[C@@H](CCCCN)C(=O)O)C(C)C)[C@@H](C)O [Myhc-α 334–352] (H-DSAFDVLSFTAEEKAGVYK-OH),IC50,IA^k,37.8 ± 10.3 µM
same,IC50,IA^b,> 100 µM
"SERCA2a 971–990: sarcoplasmic/endoplasmic reticulum Ca2^+ adenosine triphosphatase 2a 971–990 epitope (KISLPVILMDETLKFVARNY; UniProt O55143 971-990, looked up, fragment)",myocarditis induction in A/J mice (in words),A/J mice,myocarditogenic
"MOG 35–55: myelin oligodendrocyte glycoprotein 35–55 (GPGYPIRALVGDEAELPCRIS; UniProt Q61885 35-55, looked up, fragment)",T cell stimulation (in words),CD4 and CD8 T cells,stimulate both cell types
"Myhc-α 614–643: myocarditogenic epitope in BALB/c mice (SLKLMATLFSTYASADTGDSGKGKGGKKKG; UniProt Q02566 614-643, looked up, fragment)",myocarditis induction in BALB/c mice (in words),BALB/c mice,myocarditogenic
"Myhc-α 1304–1320: myocarditogenic epitope in rats (RGKLSYTQQMEDLKRQL; UniProt P02563 1304-1320, looked up, fragment)",myocarditis induction in rats (in words),rats,myocarditogenic
"cTNI 105–122: cardiac troponin I 105–122 epitope (VDKVDEERYDVEAKVTKN; UniProt P48787 105-122, looked up, fragment)",myocarditis induction in A/J mice (in words),A/J mice,myocarditogenic
"ANT 21–40: adenine nucleotide translocator 21–40 epitope (VSKTAVAPIERVKLLLQVQH; UniProt P48962 21-40, looked up, fragment)",myocarditis induction in A/J mice (in words),A/J mice,myocarditogenic
ISQAVHAAHAEINEAGR [OVA 323–339],cytokine responses (in words),lymphocytes from Tg mice,lack of cytokine responses
"Myhc-α 338–348: truncated version of Myhc-α 334–352 (DVLSFTAEEKA; UniProt Q02566 338-348, looked up, fragment)",T cell stimulation by truncated peptide (in words),CD4 and CD8 T cells; A/J,could stimulate both CD4 and CD8 T cells
"β1AR 181–200: β1 adrenergic receptor 181–200 epitope (TVWAISALVSFLPILMHWWR; UniProt P34971 181-200, looked up, fragment)",myocarditis induction in A/J mice (in words),A/J mice,myocarditogenic
B1,binding result,[1],recognises
